SMILES strings stand for the structures.

Experimental findings from patent US9044442B2, “Peptidomimetic compounds as immunomodulators” (AURIGENE DISCOVERY TECHNOLOGIES LIMITED, priority 2012, dated 2015) are described below.

Data set [1] deals with MDA-MB-231 tumor cells expressing PD-L1. Kind of data set: Rescue of mouse splenocyte proliferation inhibited by MDA-MB-231 tumor cells expressing PD-L1 (CFSE based assay). It is filed as cell-based. Conditions: for Fold induction: % splenocyte proliferation / % background proliferation, background 1.0, stimulated 3.7; for % Splenocyte proliferation: mouse splenocytes + anti-CD3/CD28 + MDA-MB-231 cells + compound, 72 hrs, background 20, stimulated 74. The text has this:
(§1) The effect of PD1 derived peptidomimetics on mouse splenocyte proliferation inhibited by recombinant PDL1 or tumor cells expressing PDL; analyzed by Fluorescence Activated Cell Shorting (FACS) method using CFSE (Carboxyfluorescein Diacetate Succinimidyl Ester) labeling.
Rescue of Mouse Splenocyte Proliferation in the Presence of Recombinant PD-L1/MDA MB-231 Cells Expressing PDL1: […]
(§2) Mouse splenocytes harvested from 6-8 weeks old C57 BL6 mice; RPMI 1640 (GIBCO, Cat #11875); DMEM with high glucose (GIBCO, Cat # D6429); Fetal Bovine Serum [Hyclone, Cat # SH30071.03]; Penicillin (10000 unit/ml)-Streptomycin (10,000 μg/ml) Liquid (GIBCO, Cat #15140-122); MEM Sodium Pyruvate solution 100 mM (100×), Liquid (GIBCO, Cat #11360); Nonessential amino acid (GIBCO, Cat #11140); L-Glutamine (GIBCO, Cat #25030); Anti-CD3 antibody (eBiosciences—16-0032); Anti-CD28 antibody (eBiosciences—16-0281); ACK lysis buffer (imp (GIBCO, Cat #-A10492); Histopaque (density-1.083 gm/ml) (SIGMA 10831); Trypan blue solution (SIGMA-T8154); 2 ml Norm Ject Luer Lock syringe—(Sigma 2014-12); 40 μm nylon cell strainer (BD FALCON 35230); Hemacytometer (Bright line-SIGMA Z359629); FACS Buffer (PBS/0.1% BSA): Phosphate Buffered Saline (PBS) pH 7.2 (HiMedia TS1006) with 0.1% Bovine Serum Albumin (BSA) (SIGMA A7050) and sodium azide (SIGMA 08591); 5 mM stock solution of CFSE: CFSE stock solution was prepared by diluting lyophilized CFSE with 180 μL of Di methyl Sulfoxide (DMSO C2H6SO, SIGMA-D-5879) and aliquoted in to tubes for further use. Working concentrations were titrated from 10 μM to 1 μM. (eBioscience—650850-85); 0.05% Trypsin and 0.02% EDTA (SIGMA 59417C); 96-well format ELISA plates (Corning CLS3390); BD FACS caliber (E6016); Recombinant Human B7-H1/PDL1 Fc Chimera (rh-PDL-1, cat no: 156-B7-100);
Splenocytes harvested in a 50 ml falcon tube by mashing mouse spleen in a 40 μm cell strainer were further treated with 1 ml ACK lysis buffer for 5 mins at room temperature. After washing with 9 ml of RPMI complete media, cells were re-suspended in 3 ml of 1×PBS in a 15 ml tube. 3 ml of Histopaque was added carefully to the bottom of the tube without disturbing overlaying splenocyte suspension. After centrifuging at 800×g for 20 mins at room temperature, the opaque layer of splenocytes was collected carefully without disturbing/mixing the layers. Splenocytes were washed twice with cold 1×PBS followed by total cell counting using Trypan Blue exclusion method and used further for cell based assays.
Splenocytes were cultured in RPMI complete media (RPMI+10% fetal bovine serum+1 mM sodium pyruvate+10,000 units/ml penicillin and 10,000 μg/ml streptomycin) and maintained in a CO2 incubator with 5% CO2 at 37° C.
CFSE is a dye that passively diffuses into cells and binds to intracellular proteins. 1×10^6 cells/ml of harvested splenocytes were treated with 5 μM of CFSE in pre-warmed 1×PBS/0.1% BSA solution for 10 mins at 37° C. Excess CFSE was quenched using 5 volumes of ice-cold culture media to the cells and incubated on ice for 5 mins. CFSE labelled splenocytes were further given three washes with ice cold complete RPMI media. CFSE labelled 1×10^5 splenocytes added to wells containing either MDA-MB231 cells (1×10^5 cells cultured in high glucose DMEM medium) or recombinant human PDL-1 (100 ng/ml) and test compounds. Splenocytes were stimulated with anti-mouse CD3 and anti-mouse CD28 antibody (1 μg/ml each), and the culture was further incubated for 72 hrs at 37° C. with 5% CO2. Cells were harvested and washed thrice with ice cold FACS buffer and % proliferation was analyzed by flow cytometry with 488 nm excitation and 521 nm emission filters.
(§3) Percent splenocyte proliferation was analyzed using cell quest FACS program and fold induction was calculated by normalizing individual values to % background proliferation. […]

A further data set concerns the target T1, recombinant mouse PDL-2 (Mus musculus, UniProt Q9WUL5).
T1 construct: purchased R&D Systems 1022-PL-100
The experiment in a line: Rescue of splenocyte effector function, IFN-γ release by ELISA, recombinant mouse PDL-2. It counts as cell-based. The settings on record: mouse splenocytes, anti-CD3/CD28, PDL-2 100 ng/ml, 72 hrs, read-out: EC50 (nM), IFN-γ release, in presence of recombinant mouse PDL-2. As for the experimental part: (§4) 1×10^5 splenocytes (isolated as described earlier) were added to wells containing recombinant mouse PDL-1 (cat no: 1019-B7-100, R&D Systems) or PDL-2 (Cat no: 1022-PL-100, R&D Systems) (both at 100 ng/ml) and test peptidomimetics. Splenocytes were stimulated with anti-mouse CD3 (eBiosciences—16-0032) and anti-mouse CD28 antibody (eBiosciences—16-0281) (1 μg/ml each) and the culture was further incubated for 72 hrs at 37° C. with 5% CO2. After 72 hours of incubation the cell culture supernatants were collected after brief centrifugation of culture plates (200 g×5 mins at 4° C.) and processed for mouse IFN-γ measurement by ELISA following manufacturer's protocol (e Biosciences; 88-7314). In brief, 96 well ELISA plates were coated with 100 μl/well of capture antibody in coating buffer and incubated overnight at 4° C. Plates were washed five times with wash buffer and further blocked with 200 μl of 1× assay diluents for 1 hr at RT. Following wash step, 100 μl of cell culture supernatants were added to wells and further incubated for 2 hrs at RT. Appropriate standards were also included. After wash step, plate was incubated for one hour with 100 μl/well of detection antibody. The wash step was repeated and the plate was incubated for 30 minutes with 100 μl/well of Avidin-HRP. The plate was washed 7 times with wash buffer and incubated for 15 minutes with 100 μl/well of substrate solution. 50 μl of stop solution was added to each well and the plate was read at 450 nm. The absorbance values were then plotted against the standards and the concentration of IFN-γ was determined using GraphPad Prism software. Each experimental condition was carried out in triplicates. Percent IFN-γ release for each test compound concentration was calculated by normalising individual test compound IFN-γ values to anti-CD3+anti-CD28 stimulated IFN-γ value. The percent IFN-γ release by test compounds were calculated using following formula: % IFN-γ release=[(Test compound IFN-γ−PDL background control)/(anti-CD3+anti-CD28 positive control−PDL background control)]*100. […]
On the technique in general: ELISA stands for enzyme-linked immunosorbent assay.

The next data set has as its target T2, recombinant mouse PDL-1 (Mus musculus, UniProt Q9EP73).
T2 construct: purchased R&D Systems 1019-B7-100
The experiment in a line: Rescue of splenocyte effector function, IFN-γ release by ELISA, recombinant mouse PDL-1. It is filed as cell-based. Conditions: mouse splenocytes, anti-CD3/CD28, PDL-1 100 ng/ml, 72 hrs, read-out: EC50 (nM), IFN-γ release, in presence of recombinant mouse PDL-1. As for the experimental part: as §4

Another data set addresses T3, recombinant human PDL-1 (Homo sapiens, UniProt Q9NZQ7).
T3 construct: Fc (Fc chimera); purchased R&D Systems 156-B7-100
Kind of data set: Rescue of mouse splenocyte proliferation inhibited by recombinant human PDL-1 (CFSE, FACS). It is filed as cell-based. Conditions: mouse splenocytes, anti-CD3/CD28 stimulated, rh-PDL-1 100 ng/ml, 72 hrs.
Source text: as §1
Rescue of Mouse Splenocyte Proliferation in the Presence of Recombinant PD-L1/MDA MB-231 Cells Expressing PDL1:
Alternatively, recombinant human PD-L1 (rh-PDL-1, cat no: 156-B7-100, R&D Systems) was also used as the source of PD-Ll.
as §2, with “Working concentrations were titrated from 10 μM to 1 μM. (eBioscience—650850-85); 0.05% Trypsin and 0.02% EDTA (SIGMA 59417C); 96-well format ELISA plates (Corning CLS3390); BD FACS caliber (E6016); Recombinant Human B7-H1/PDL1 Fc Chimera (rh-PDL-1, cat no: 156-B7-100);” left out
CFSE is a dye that passively diffuses into cells and binds to intracellular proteins. […] Cells were harvested and washed thrice with ice cold FACS buffer and % proliferation was analyzed by flow cytometry with 488 nm excitation and 521 nm emission filters.
as §3

Data set [2] deals with CT26 (murine colon carcinoma) cells. Kind of data set: In vivo efficacy on primary tumour growth in CT-26 colon cancer model. Also noted: species or system mouse. The settings on record: male Balb/c mice, 3 mg/kg. As for the experimental part: Two million CT26 (murine colon carcinoma) cells injected to male Balb/c mice (s.c) on day 1 and dosing started on Day 5. Each group consisted of ten animals. Tumor volumes were measured 3 times a week, body weight and clinical signs monitored daily. Compound #2 dosed at 3 mg/kg, inhibited the tumour growth to the extent of 46 percent (p<0. p<0.01, 2-way ANOVA) (FIG. 2).

T2 sequence (Q9EP73 with tags, fused parts or gaps limits assumed): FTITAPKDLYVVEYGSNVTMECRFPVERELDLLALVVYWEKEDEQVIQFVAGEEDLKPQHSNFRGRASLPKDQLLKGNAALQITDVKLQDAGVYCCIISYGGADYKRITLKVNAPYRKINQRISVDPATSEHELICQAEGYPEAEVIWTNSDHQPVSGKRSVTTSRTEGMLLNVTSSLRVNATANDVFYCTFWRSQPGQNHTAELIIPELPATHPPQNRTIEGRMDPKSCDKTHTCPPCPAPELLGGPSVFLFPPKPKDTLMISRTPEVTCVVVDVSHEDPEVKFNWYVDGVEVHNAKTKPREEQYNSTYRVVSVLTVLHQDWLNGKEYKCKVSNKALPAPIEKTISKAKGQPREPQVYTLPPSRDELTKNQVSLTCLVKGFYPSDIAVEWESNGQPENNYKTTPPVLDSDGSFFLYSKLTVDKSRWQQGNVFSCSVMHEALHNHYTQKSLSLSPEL
T1 sequence (Q9WUL5 with tags, fused parts or gaps limits assumed): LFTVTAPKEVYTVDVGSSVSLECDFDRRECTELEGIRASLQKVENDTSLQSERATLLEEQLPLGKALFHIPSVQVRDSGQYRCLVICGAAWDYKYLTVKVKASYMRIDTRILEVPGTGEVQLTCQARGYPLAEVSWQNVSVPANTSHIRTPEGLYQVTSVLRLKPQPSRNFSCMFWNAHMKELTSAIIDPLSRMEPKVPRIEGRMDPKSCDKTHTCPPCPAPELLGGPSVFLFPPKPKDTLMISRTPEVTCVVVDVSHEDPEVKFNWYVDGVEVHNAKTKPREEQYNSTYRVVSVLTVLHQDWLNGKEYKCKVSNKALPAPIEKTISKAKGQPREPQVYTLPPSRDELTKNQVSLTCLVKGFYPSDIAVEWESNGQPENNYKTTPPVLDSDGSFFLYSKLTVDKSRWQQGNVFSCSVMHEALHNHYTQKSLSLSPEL
T3 sequence (Q9NZQ7 with tags, fused parts or gaps limits assumed): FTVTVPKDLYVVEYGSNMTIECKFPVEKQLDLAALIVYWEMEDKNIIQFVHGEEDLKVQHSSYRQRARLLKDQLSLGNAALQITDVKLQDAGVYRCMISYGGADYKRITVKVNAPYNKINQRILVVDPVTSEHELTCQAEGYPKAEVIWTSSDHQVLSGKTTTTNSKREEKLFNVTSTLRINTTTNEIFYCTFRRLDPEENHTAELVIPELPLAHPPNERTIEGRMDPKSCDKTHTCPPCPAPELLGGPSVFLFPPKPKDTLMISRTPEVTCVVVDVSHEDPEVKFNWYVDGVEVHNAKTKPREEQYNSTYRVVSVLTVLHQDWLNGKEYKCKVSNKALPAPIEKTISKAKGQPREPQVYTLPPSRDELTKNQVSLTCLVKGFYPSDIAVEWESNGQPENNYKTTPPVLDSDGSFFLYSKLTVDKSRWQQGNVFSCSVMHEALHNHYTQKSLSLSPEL

Turning to `NC(=O)C[C@H](N)C(=O)NNC(=O)[C@@H](N)CO` [Compound 1], in data set [1], the Fold induction was found to be 2.8 and the “% Splenocyte proliferation” value is listed as 56%.

`CC(O)[C@H](NC(=O)N[C@@H](CC(N)=O)C(=O)NNC(=O)[C@@H](N)CO)C(=O)O` (some centres unmarked) [Compound 2]: the concentration giving a half-maximal response (EC50) at recombinant mouse PDL-2 is 40 nM. Moreover, in data set [1], the Fold induction is recorded as 3.4 and the “% Splenocyte proliferation” value was 68%. Moreover, on recombinant mouse PDL-1, the EC50 is 30 nM. In addition, at recombinant human PDL-1, the half-maximal effective concentration (EC50) stood at 23 nM. Also, in data set [2] (CT26 model), the “body weight reduction during the period of dosing” value is listed as “no body weight reduction” and the “clinical signs during the period of dosing” value is “no clinical signs”. Also, in data set [2] (CT26 s.c., dosing from Day 5), the “inhibition of tumour growth” value is given as 46%.

`CN[C@@H](CO)C(=O)NNC(=O)[C@H](CC(N)=O)NC(=O)N[C@H](C(=O)O)C(C)O` (some centres unmarked) [Compound 4]: in data set [1], the Fold induction amounted to 2.8 and the “% Splenocyte proliferation” value was 56%.

Consider `CC(O)[C@H](N)C(=O)N[C@@H](CC(N)=O)C(=O)NNC(=O)[C@@H](N)CO` (some centres unmarked) [Compound 5], for which, in data set [1], the Fold induction was 3 and the “% Splenocyte proliferation” value was determined as 60%.

As for `CC(O)[C@H](NC(=O)N[C@@H](CC(N)=O)C(=O)NNC(=O)[C@@H](N)CO)C(N)=O` (some centres unmarked) [Compound 6], in data set [1], the Fold induction turned out to be 2.3 and the “% Splenocyte proliferation” value is 46%.

Turning to `NC(=O)C[C@H](NC(=O)N[C@@H](CC(=O)O)C(=O)O)C(=O)NNC(=O)[C@@H](N)CO` [Compound 7], in data set [1], the Fold induction is given as 2.9 and the “% Splenocyte proliferation” value was 57%.

As to `CCC(C)[C@H](NC(=O)N[C@@H](CC(N)=O)C(=O)NNC(=O)[C@@H](N)CO)C(=O)O` (some centres unmarked) [Compound 8], in data set [1], the Fold induction came out at 3 and the “% Splenocyte proliferation” value was found to be 60%.

`COC(=O)[C@@H](NC(=O)N[C@@H](CC(N)=O)C(=O)NNC(=O)[C@@H](N)CO)C(C)O` (some centres unmarked) [Compound 10]: in data set [1], the Fold induction is reported as 3.4 and the “% Splenocyte proliferation” value is 67%.

For the molecule `COC[C@H](N)C(=O)NNC(=O)[C@H](CC(N)=O)NC(=O)N[C@H](C(=O)O)C(C)O` (some centres unmarked) [Compound 11], in data set [1], the Fold induction is listed as 2.2 and the “% Splenocyte proliferation” value is listed as 44%.

`CC(O)[C@H](N)C(=O)NNC(=O)[C@H](CC(N)=O)NC(=O)N[C@@H](CO)C(=O)O` (some centres unmarked) [Compound 12]: the EC50 on recombinant mouse PDL-2 is 62 nM; at recombinant mouse PDL-1 it was 27 nM; at recombinant human PDL-1 it was 22 nM.

`CC(O)[C@@H](N)C(=O)NNC(=O)[C@@H](CC(N)=O)NC(=O)N[C@H](CO)C(=O)O` (some centres unmarked) [Compound 13]: the 50% effective concentration (EC50) came out at 30 nM on recombinant mouse PDL-2, 40 nM on recombinant mouse PDL-1 and 35 nM on recombinant human PDL-1. This molecule showed a Fold induction in data set [1] of 3.4. In addition, the “% Splenocyte proliferation” value in data set [1] is recorded as 67%.

For the molecule `CC(O)[C@H](NC(=O)N[C@H](CC(N)=O)C(=O)NNC(=O)[C@H](N)CO)C(=O)O` (some centres unmarked) [Compound 15], in data set [1], the Fold induction is 2.9 and the “% Splenocyte proliferation” value is recorded as 58%.

On to `C[C@H](NC(=O)N[C@@H](CC(N)=O)C(=O)NNC(=O)[C@@H](N)CO)C(=O)O` [Compound 17], for which, in data set [1], the Fold induction is recorded as 3 and the “% Splenocyte proliferation” value came out at 59%.

On to `CNC(=O)N[C@H](C(=O)N[C@@H](CC(N)=O)C(=O)NNC(=O)[C@@H](N)CO)C(C)O` (some centres unmarked) [Compound 18], for which, in data set [1], the Fold induction came to 3 and the “% Splenocyte proliferation” value stood at 59%.

By EC50 is commonly meant the concentration at which the effect is half-maximal.
